Results as given in patent US20250282754A1, “BICYCLIC COMPOUNDS AND THEIR USE AS PEST CONTROL AGENTS” (Pl Industries Ltd., priority 2022, published 2025).

Columns and labels:
[1] = test system: Nilaparvata lugens; assay: Nilaparvata lugens seedling dip test (paddy seedlings, third instar nymphs); assay type: in vivo; conditions: dead and moribund third instar nymphs 72 h after release, compared to untreated controls, read-out: percent mortality
Protocol: The seedling dip method was used for testing, wherein the required quantity of the compound was weighed and dissolved in a tube containing a solvent solution. The tube was put on a vortex at 2000 rpm for proper mixing and then diluted with a 0.01% Triton-X solution to the desired test concentration. Paddy seedlings were dipped in the compound solution for 10 seconds, shade dried for 20 min and then the seedlings were placed in glass test tubes with the roots kept in water. 15 third instar nymphs of Nilaparvata lugens were released into each test tube and the tubes were kept in a plant growth chamber at a temperature of 25° C. and relative humidity of 75%. Observations on dead, moribund and alive nymphs were recorded 72 h after the release. Percent mortality was calculated by combining dead and moribund nymphs and comparing the result to the one of the untreated controls. The compounds

[2] = test system: Bemisia tabaci; assay: Bemisia tabaci leaf dip test (brinjal leaves, whitefly adults); assay type: in vivo; conditions: foliar, dead and moribund whitefly adults 72 h after release, compared to untreated controls, read-out: percent mortality
Protocol: The leaf dip method was used for testing, wherein the required quantity of the compound was weighed and dissolved in a tube containing a solvent solution. The tube was put on a vortex at 2000 rpm for proper mixing and then diluted with a 0.01% Triton-X solution to the desired test concentration. Brinjal leaves were dipped in the compound solution for 10 seconds; shade dried for 20 min and then placed, with the abaxial side of the leaf up, on 4 ml of a solidified 1% agar-agar solution in respective container caps. Known numbers of freshly emerged whitefly adults were collected, using a modified aspirator, and released into a perforated container in which the cap containing the treated leaf was placed. The containers were kept in a plant growth chamber at a temperature of 25° C. and relative humidity of 70%. Observations on dead, moribund and alive adults were recorded 72 h after the release. Percent mortality was calculated by combining dead and moribund adults and comparing the result to the one of the untreated controls. The compounds 1 9 11 18 25 28 29 30 31

| Compound | mortality at 300 ppm [1] | mortality at 300 ppm [2] |
| --- | --- | --- |
| CCS(C)(=O)=Nc1ccc2nn(-c3cncc(F)c3)cc2c1 (stereo not drawn) [Compound 5] | ≥ 70% |  |
| CS(C)(=O)=Nc1ccc2nn(-c3cncc(F)c3)cc2c1 [Compound 8] | ≥ 70% |  |
| CS(=O)(Cc1ccccc1)=Nc1ccc2nn(-c3cncc(F)c3)cc2c1 (stereo not drawn) [Compound 13] | ≥ 70% |  |
| CS(=O)(=Nc1ccc2nn(-c3cncc(F)c3)cc2c1)c1ccccc1 (stereo not drawn) [Compound 14] | ≥ 70% |  |
| CS(=O)(Cc1ccccc1)=Nc1ccc2nn(-c3cncnc3)cc2c1 (stereo not drawn) [Compound 16] | ≥ 70% |  |
| CC(C)(C)S(C)(=O)=Nc1ccc2nn(-c3cncnc3)cc2c1 (stereo not drawn) [Compound 19] | ≥ 70% |  |
| CS(=O)(=Nc1ccc2nn(-c3cccnc3)cc2c1)c1ccccc1 (stereo not drawn) [Compound 21] | ≥ 70% |  |
| Cc1ccc(S(C)(=O)=Nc2ccc3nn(-c4cccnc4)cc3c2)cc1 (stereo not drawn) [Compound 23] | ≥ 70% |  |
| CS(=O)(=Nc1ccc2nn(-c3cccnc3)cc2c1)c1ccc(Cl)cc1 (stereo not drawn) [Compound 26] | ≥ 70% |  |
| CCCCCS(C)(=O)=Nc1ccc2nn(-c3cccnc3)cc2c1 (stereo not drawn) [Compound 27] | ≥ 70% |  |
| CCCCCS(C)(=O)=Nc1ccc2nn(-c3cncc(F)c3)cc2c1 (stereo not drawn) [Compound 42] | ≥ 70% |  |
| Cc1ccc(S(C)(=O)=Nc2ccc3nn(-c4cncc(F)c4)cc3c2)cc1 (stereo not drawn) [Compound 51] | ≥ 70% |  |
| CCS(=O)(=NC(=O)c1ccc2nn(-c3cccnc3)cc2c1)C(C)C (stereo not drawn) [Compound 105, N-(ethyl(isopropyl)(oxo)-λ^6-sulfaneylidene)-2-(pyridin-3-yl)-2H-indazole-5-carboxamide] | ≥ 70% |  |
| COc1nn(-c2ccc3nn(-c4cncc(C)c4)cc3c2)c(=O)n1C [Compound 111, 5-methoxy-4-methyl-2-(2-(5-methylpyridin-3-yl)-2H-indazol-5-yl)-2,4-dihydro-3H-1,2,4-triazol-3-one] | ≥ 70% |  |
| COc1nn(-c2ccc3nn(-c4cccnc4C)cc3c2)c(=O)n1C [Compound 113, 5-methoxy-4-methyl-2-(2-(2-methylpyridin-3-yl)-2H-indazol-5-yl)-2,4-dihydro-3H-1,2,4-triazol-3-one] | ≥ 70% |  |
| COc1nn(-c2ccc3nn(-c4cnccc4C)cc3c2)c(=O)n1C [Compound 114, 5-methoxy-4-methyl-2-(2-(4-methylpyridin-3-yl)-2H-indazol-5-yl)-2,4-dihydro-3H-1,2,4-triazol-3-one] | ≥ 70% |  |
| COc1nn(-c2ccc3nn(-c4ccc(C)nc4)cc3c2)c(=O)n1C [Compound 115, 5-methoxy-4-methyl-2-(2-(6-methylpyridin-3-yl)-2H-indazol-5-yl)-2,4-dihydro-3H-1,2,4-triazol-3-one] | ≥ 70% |  |
| COc1nn(-c2cccc3nn(-c4cccnc4)cc23)c(=O)n1C [Compound 125, 5-methoxy-4-methyl-2-(2-(pyridin-3-yl)-2H-indazol-4-yl)-2,4-dihydro-3H-1,2,4-triazol-3-one] | ≥ 70% |  |
| COc1nn(-c2ccc3nn(-c4cccnc4)cc3c2)c(=O)n1C1CC1 [Compound 127, 4-cyclopropyl-5-methoxy-2-(2-(pyridin-3-yl)-2H-indazol-5-yl)-2,4-dihydro-3H-1,2,4-triazol-3-one] | ≥ 70% |  |
| CS(=O)(=Nc1cnc2nn(-c3cccnc3)cc2c1)c1ncccc1F (stereo not drawn) [Compound 152] | ≥ 70% |  |
| CS(=O)(=Nc1cnc2nn(-c3cccnc3)cc2c1)c1cccnc1Cl (stereo not drawn) [Compound 153] | ≥ 70% |  |
| CC(C)CS(=O)(CC(C)C)=Nc1ccc2nn(-c3cncnc3)c(Cl)c2c1 [Compound 181] | ≥ 70% |  |
| N=S(=O)(CCC1CCCCC1)c1ccc2nn(-c3cccnc3)cc2c1 (stereo not drawn) [Compound 561, (2-cyclohexylethyl)(imino)(2-(pyridin-3-yl)-2H-indazol-5-yl)-λ^6-sulfanone] |  | ≥ 70% |
| N=S(=O)(CCC(F)(F)F)c1ccc2nn(-c3cccnc3)cc2c1 (stereo not drawn) [Compound 580, imino(2-(pyridin-3-yl)-2H-indazol-5-yl)(3,3,3-trifluoropropyl)-λ^6-sulfanone] |  | ≥ 70% |
